From US9528155B2, “In vitro method for determining immunotoxicity of a compound” (UNIVERSITEIT MAASTRICHT, priority 2012, dated 2016)
Like-named read-outs stand apart in the source and are kept apart here.

Experiments:
Assay type in all cases: cell-based, human
CRIM1 = test: Fluidigm multiplex real-time quantitative PCR of marker gene CRIM1 in exposed Jurkat cells
HMGCS1 = test: Fluidigm multiplex real-time quantitative PCR of marker gene HMGCS1 in exposed Jurkat cells
ABCA1 = test: Fluidigm multiplex real-time quantitative PCR of marker gene ABCA1 in exposed Jurkat cells
CHAC1 = test: Fluidigm multiplex real-time quantitative PCR of marker gene CHAC1 in exposed Jurkat cells
[1] = Jurkat cells, 6 h exposure at sub-cytotoxic exposure conc. of Tables 1/2, vs vehicle control, N=3, below -1.0 = underexpression

Row | Molecule | Expression levels of marker genes upon exposure: CRIM1 (Fold Change) (CRIM1; [1]) | Expression levels of marker genes upon exposure: HMGCS1 (Fold Change) (HMGCS1; [1]) | Expression levels of marker genes upon exposure: ABCA1 (Fold Change) (ABCA1; [1]) | Expression levels of marker genes upon exposure: CHAC1 (Fold Change) (CHAC1; [1]) | Expression levels of marker genes upon exposure: ABCA1 (Fold Change) (ABCA1) | Expression levels of marker genes upon exposure: CRIM1 (Fold Change) (CRIM1) | Expression levels of marker genes upon exposure: HMGCS1 (Fold Change) (HMGCS1) | Expression levels of marker genes upon exposure: CHAC1 (Fold Change) (CHAC1)
1 | CC1(C)S[C@@H]2[C@H](NC(=O)[C@H](N)c3ccccc3)C(=O)N2[C@H]1C(=O)O [AMP, ampicillin] | 1.2 ± 1.1 | 1.4 ± 0.3 | – | – | – | – | – | –
2 | O=P1(N(CCCl)CCCl)NCCCO1 (stereo not shown) [CP S9, cyclophosphamide] | 1.1 ± 0.3 | 2.0 ± 1 | 1.9 ± 1.6 | – | – | – | – | –
3 | Cn1cnc([N+](=O)[O-])c1Sc1ncnc2nc[nH]c12 [AZA, azathioprine] | 1.8 ± 1.0 | 1.1 ± 0.2 | – | 2.3 ± 2.1 | – | – | – | –
4 | Clc1cc(Cl)c(-c2cc(Cl)c(Cl)cc2Cl)cc1Cl [PCB153, polychlorinated biphenyl 153] | – | – | – | – | 1.1 ± 1.4 | −1.2 ± 2.2 | 2.0 ± 1.2 | 1.2 ± 3
5 | CCCCC(CC)COC(=O)c1ccccc1C(=O)O (stereo not shown) [MEHP, mono-(2-ethylhexyl) phthalate] | – | – | – | – | −1.2 ± 0.1 | −1 ± 0.6 | 1.6 ± 0.9 | 3.5 ± 2.1
6 | CCCCC(CC)COC(=O)c1ccccc1C(=O)OCC(CC)CCCC (stereo not shown) [DEHP, Bis(2-ethylhexyl)phthalate] | 1.9 ± 1.5 | 1.2 ± 0.1 | – | – | – | – | – | –
7 | COc1c(C)c2c(c(O)c1C/C=C(\C)CCC(=O)O)C(=O)OC2 [MPA, mycophenolic acid] | – | – | 1.1 ± 0.7 | 1.5 ± 0.9 | – | – | – | –
8 | Cn1c(N)nc2c3cccnc3ccc21 [IQ, 2-amino-3-methyl-3H-imidazo[4,5-F]quinoline] | – | – | – | – | 1.0 ± 2.2 | 1.1 ± 1.8 | – | –
9 | CCO [EtOH, ethanol] | – | – | 1.2 ± 1.0 | 34.3 ± 2.3 | – | – | – | –
10 | O=[N+]([O-])[O-].[Ag+] [AgNO3, silver nitrate] | 1.1 ± 0.3 | 1.6 ± 0.9 | 1.5 ± 1.2 | −1.1 ± 0.5 | – | – | – | –
11 | OC[C@@H](O)[C@@H](O)[C@H](O)[C@H](O)CO [MANNITOL] | 1.1 ± 0.7 | 1.2 ± 0.3 | – | – | – | – | – | –
12 | CN(C)N=O [DMNA, dimethylnitrosamine] | – | – | – | – | −1.8± | −12 ± 1.5 | 1.2 ± 1.1 | −1.5 ± 1.5
13 | O=S(=O)(O)C(F)(F)C(F)(F)C(F)(F)C(F)(F)C(F)(F)C(F)(F)C(F)(F)C(F)(F)F [PFOS] | – | – | – | – | −4.3 ± 0.2 | −1.5 ± 0.4 | −1.1 ± 0.2 | 1.8 ± 1.5
14 | [Cl][Cd][Cl] [CdCl2, cadmium dichloride] | 4.3 ± 2.0 | 2.2 ± 1.3 | 1.3 ± 1.3 | 7.0 ± 1.5 | – | – | – | –
15 | arsenic trioxide [As2O3] | 2.4 ± 1.1 | −1.1 ± 0.2 | 1.4 ± 0.3 | 41.2 ± 32.5 | – | – | – | –
16 | O=[N+]([O-])c1ccc2ccc3cccc4ccc1c2c34 [1-NPR, 1-Nitropyrene] | – | – | – | – | 1.3 ± 1.2 | 1.3 ± 1.6 | – | –
17 | C[C@@H]1Cc2c(Cl)cc(C(=O)N[C@@H](Cc3ccccc3)C(=O)O)c(O)c2C(=O)O1 [OTA, ochratoxin A] | −1.3 ± 0.1 | −2.5 ± 0.1 | −2.2 ± 0.1 | 32.9 ± 14.5 | – | – | – | –
18 | CC1=C[C@H]2O[C@@H]3[C@H](O)C[C@](C)([C@@]2(CO)[C@H](O)C1=O)[C@]31CO1 [DON, deoxynivalenol] | 1.4 ± 0.4 | −1.5 ± 0.3 | −1.9 ± 0.2 | −1.4 ± 0.4 | – | – | – | –
19 | tributyltin oxide [TBTO] | −1.1 ± 0.8 | −1.5 ± 0.1 | 30.9 ± 8.5 | −1.1 ± 0.4 | – | – | – | –
20 | Sc1ncnc2nc[nH]c12 [6MP, 6-mercaptopurine] | 1.0 ± 0.6 | – | – | 1.8 ± 1.1 | – | – | – | –
21 | C[C@]12C=CC(=O)C=C1CC[C@@H]1[C@@H]2[C@@H](O)C[C@@]2(C)[C@H]1CC[C@]2(O)C(=O)CO [PRD, prednisolone] | 3.9 ± 0.6 | 1.7 ± 0.1 | 1.0 ± 0.6 | 2.7 ± 1.9 | – | – | – | –
22 | CCC(=O)Nc1ccc(Cl)c(Cl)c1 [PROP, N-(3,4-Dichloro-phenyl)propanamide] | 1.4 ± 0.1 | – | 1.3 ± 1 | – | – | – | – | –
23 | CCOC(N)=O [urethane] | 1.1 ± 0.5 | 1.2 ± 0.3 | – | 1.2 ± 0.4 | – | – | – | –
24 | Cl[C@H]1[C@H](Cl)[C@@H](Cl)[C@@H](Cl)[C@H](Cl)[C@H]1Cl [LIN, Gamma-hexachlorocyclohexane] | 2.3 ± 0.1 | −2.4 ± 0 | 3.4 ± 3.6 | 10.2 ± 7.6 | – | – | – | –
25 | ochratoxin A, S9-treated [OTA S9] | −1.1 ± 0.5 | 2.0 ± 1.0 | 1.3 ± 1.8 | −13.8 ± 0.0 | – | – | – | –
26 | C=CC(=O)NCNC(=O)C=C [MBA, N,N′-methylenebisacrylamide] | – | – | – | – | – | 1.1 ± 1.9 | 1.0 ± 1.1 | 1.5 ± 2.1
27 | CN(Cc1cnc2nc(N)nc(N)c2n1)c1ccc(C(=O)N[C@@H](CCC(=O)O)C(=O)O)cc1 [MTX, methotrexate] | 1.4 ± 1.1 | – | – | – | – | – | – | –
28 | C[C@@H]1C[C@H]2[C@@H]3CCC4=CC(=O)C=C[C@]4(C)[C@@]3(F)[C@@H](O)C[C@]2(C)[C@@]1(O)C(=O)CO [DEX, dexamethasone] | 1.4 ± 0.6 | 1.0 ± 0.1 | – | – | – | – | – | –
